Experimental data published in article PMC3440086, “Profiling Environmental Chemicals for Activity in the Antioxidant Response Element Signaling Pathway Using a High Throughput Screening Approach” (Environmental Health Perspectives, 2012).
“Also recorded” adds a separate entry of the source. Read-outs that look alike come from different tables or passages of the source.

Legend:
[1] = system: antioxidant response element (ARE) signaling pathway; test: ARE-bla β-lactamase reporter gene assay in HepG2 cells (qHTS); assay type: cell-based, human
[2] = system: Nrf2-dependent ARE transcriptional activity; test: ARE-luc luciferase reporter gene assay in HepG2 cells (qHTS); assay type: cell-based; details: for Emax: read-out: ARE-luc Efficacy
mutated ARE = assay type: cell-based; details: for ARE-bla mutant Efficacy: normalized to DMSO (0%) and ARE-bla maximal β-napthoflavone response (100%)
[3] = follow-up studies, up to 46 µM, listed as 1,10-phenanthroline monohydrate
[4] = primary qHTS screening, 0.59 nM to 92 µM
[5] = confirmation/follow-up studies, HepG2, 16 hr exposure, mean ± SD
[6] = confirmation/follow-up studies, HepG2, mean ± SD
[7] = Homo sapiens, HepG2, confirmation/follow-up studies, activation of ARE reporter as % of positive control (β-napthoflavone), read-out: ARE-bla Efficacy
[8] = Homo sapiens, confirmation/follow-up studies, HepG2, 16 hr exposure, mean ± SD, read-out: ARE-bla EC50
[9] = Homo sapiens, HepG2, confirmation/follow-up studies, activation of ARE reporter as % of positive control (β-napthoflavone)
[10] = Homo sapiens, confirmation/follow-up studies, HepG2, 16 hr exposure, mean ± SD, read-out: ARE-luc EC50
[11] = Homo sapiens, HepG2, confirmation/follow-up studies, […], read-out: ARE-bla Efficacy
[12] = confirmation/follow-up studies, HepG2, 16 hr exposure, mean ± SD, read-out: ARE-bla EC50
[13] = confirmation/follow-up studies, […]
[14] = confirmation/follow-up studies, HepG2, 16 hr exposure, mean ± SD, read-out: ARE-luc EC50
[15] = follow-up studies, up to 46 µM, listed as 3-dimethylaminophenol
[16] = Homo sapiens, HepG2, confirmation/follow-up studies, […]
[17] = follow-up studies, up to 46 µM, listed as chlorambucil
[18] = confirmation/follow-up studies, activation of ARE reporter as % of positive control (β-napthoflavone)

## 1,3-Dinitronapthalene
[1]
  ARE-bla Efficacy: 80%
[1]; read-out: ARE-bla EC50
  EC50: 1.2 ± 0.2 µM
[2]
  ARE-luc Efficacy: 180%
[2]; read-out: ARE-luc EC50
  EC50: 16.2 ± 11 µM
Mutated ARE
  ARE-bla mutant IC50: inactive

## O.c1cnc2c(c1)ccc1cccnc12 [1,10-Phenanthroline monohydrate]
[1]; follow-up studies, up to 46 µM
  activity in ARE-bla assay (words): inactive in all assays
[1]; [3]
  activity in ARE-bla assay (words): inactive across all assays
[1]; [4]
  activity in ARE-bla assay (words): showed activity
[2]; [5]
  ARE-luc EC50: inactive
[2]; follow-up studies, up to 46 µM
  activity in ARE-luc assay (words): inactive in all assays
[2]; [3]
  activity in ARE-luc assay (words): inactive across all assays
Mutated ARE; [6]
  ARE-bla mutant IC50: inactive
Mutated ARE; follow-up studies, up to 46 µM
  activity in ARE-bla-mut assay (words): inactive in all assays
Mutated ARE; [3]
  activity in ARE-bla-mut assay (words): inactive across all assays

## O=[N+]([O-])c1cc(Cl)c(Cl)c(Cl)c1Cl [2,3,4,5-Tetrachloronitrobenzene]
[1]; [7]
  Emax: 56%
[1]; [8]
  EC50: 9.4 ± 3.2 µM
[2]; [9]
  Emax: 124%
[2]; [10]
  EC50: 27.7 ± 6.7 µM
Mutated ARE; [6]
  ARE-bla mutant IC50: inactive

## Nc1cc(Cl)ccc1O [2-Amino-4-chlorophenol]
[1]; [11]
  Emax: 72%
[1]; [8]
  EC50: 7 ± 1.8 µM
[2]; [9]
  Emax: 175%
[2]; [10]
  EC50: 6.3 ± 2.1 µM
Mutated ARE; [6]
  ARE-bla mutant IC50: inactive

## Cc1cccc2sc(N)nc12 [2-Amino-4-methylbenzothiazole]
[1]; [7]
  Emax: 49%
[1]; [8]
  EC50: 10.1 ± 2.1 µM
[1]; follow-up studies, up to 46 µM
  activity in ARE-bla assay (words): active only in the ARE-bla assay
[2]; [5]
  ARE-luc EC50: inactive
Mutated ARE; [6]
  ARE-bla mutant IC50: inactive

## Cc1ccc(O)c(N)c1 [2-Amino-4-methylphenol]
[1]; [7]
  Emax: 76%
[1]; [8]
  EC50: 12 ± 4.8 µM
[2]; [9]
  Emax: 90%
[2]; [10]
  EC50: 24 ± 7.1 µM
Mutated ARE; [6]
  ARE-bla mutant IC50: inactive

## Nc1nc2ccc([N+](=O)[O-])cc2s1 [2-Amino-6-nitrobenzothiazole]
[1]; [7]
  Emax: 107%
[1]; [8]
  EC50: 16.7 ± 9.6 µM
[1]; follow-up studies, up to 46 µM
  activity in ARE-bla assay (words): active only in the ARE-bla assay
[2]; [5]
  ARE-luc EC50: inactive
Mutated ARE; [6]
  ARE-bla mutant IC50: inactive

## Nc1ccc(N)c(Cl)c1.O=S(=O)(O)O [2-Chloro-p-phenylenediamine SO4]
[1]; [12]
  EC50: 17.1 ± 4.1 µM
[1]; [13]
  ARE-bla Efficacy: 72%
[2]; [14]
  EC50: 26.5 ± 6 µM
[2]; [13]
  ARE-luc Efficacy: 83%
Mutated ARE; [6]
  ARE-bla mutant IC50: inactive

## Nc1cc(Cl)cc(Cl)c1 [3,5-Dichloroaniline]
[1]; [5]
  ARE-bla EC50: inactive
[2]; [5]
  ARE-luc EC50: inactive
Mutated ARE; [6]
  ARE-bla mutant IC50: inactive

## CN(C)c1cccc(O)c1 [3-Dimethylaminophenol]
[1]; follow-up studies, up to 46 µM
  activity in ARE-bla assay (words): inactive in all assays
[1]; [15]
  activity in ARE-bla assay (words): inactive
[2]; follow-up studies, up to 46 µM
  activity in ARE-luc assay (words): inactive in all assays
[2]; [15]
  activity in ARE-luc assay (words): inactive
Mutated ARE; [6]
  ARE-bla mutant IC50: inactive
Mutated ARE; follow-up studies, up to 46 µM
  activity in ARE-bla-mut assay (words): inactive in all assays

## Nc1ccc(Cl)cc1N [4-Chloro-o-phenylenediamine]
[1]; follow-up studies, up to 46 µM
  activity in ARE-bla assay (words): inactive
[1]; [4]
  activity in ARE-bla assay (words): showed activity
[2]; [16]
  Emax: 111%
[2]; [10]
  EC50: 27.2 ± 3.7 µM
Mutated ARE; [6]
  ARE-bla mutant IC50: inactive

## CCOCN(C(=O)CCl)c1c(C)cccc1CC [Acetochlor]
[1]; [7]
  Emax: 86%
[1]; [8]
  EC50: 4.7 ± 1.6 µM
[1]; follow-up studies, up to 46 µM
  activity in ARE-bla assay (words): active; also recorded: demonstrated activity
[1]; [4]
  activity in ARE-bla assay (words): high-quality active
[2]; [9]
  Emax: 78%
[2]; [10]
  EC50: 21.9 ± 5.3 µM
[2]; follow-up studies, up to 46 µM
  activity in ARE-luc assay (words): active; also recorded: demonstrated activity
[2]; [4]
  activity in ARE-luc assay (words): high-quality active
Mutated ARE; [6]
  ARE-bla mutant IC50: inactive

## c1ccc2c(c1)-c1cccc3c1c-2cc1ccccc13 [Benzo(b)fluoranthene]
[1]; [11]
  Emax: 136%
[1]; [8]
  EC50: 5.9 ± 3 µM
[2]; [16]
  Emax: 19%
[2]; [10]
  EC50: 1.3 ± 1 µM
Mutated ARE
  activity in ARE-bla-mut assay (words): may exhibit autofluorescence
Mutated ARE; confirmation/follow-up studies
  ARE-bla mutant Efficacy: 134%

## c1ccc2cc3c(cc2c1)-c1cccc2cccc-3c12 [Benzo(k)fluoranthene]
[1]; [11]
  Emax: 114%
[1]; [8]
  EC50: 1.6 ± 0.7 µM
[2]; [16]
  Emax: 103%
[2]; [10]
  EC50: 4.9 ± 2.2 µM
Mutated ARE
  activity in ARE-bla-mut assay (words): may exhibit autofluorescence
Mutated ARE; confirmation/follow-up studies
  ARE-bla mutant Efficacy: 160%

## CC(C)(c1ccc(O)cc1)c1ccc(O)cc1 [Bisphenol A]
[1]; [7]
  Emax: 48%
[1]; [8]
  EC50: 12.5 ± 5.6 µM
[2]; [5]
  ARE-luc EC50: inactive
Mutated ARE; [6]
  ARE-bla mutant IC50: inactive

## [Cd+2].[Cl-].[Cl-] [Cadmium II chloride]
[1]
  ARE-bla EC50: inactive
[2]
  ARE-luc Efficacy: 446
[2]; read-out: ARE-luc EC50
  EC50: 1.1 ± 0.1 µM
Mutated ARE
  ARE-bla mutant IC50: inactive

## O=C(O)CCCc1ccc(N(CCCl)CCCl)cc1 [Chlorambucil, reference compound]
[1]; [5]
  ARE-bla EC50: inactive
[1]; follow-up studies, up to 46 µM
  activity in ARE-bla assay (words): inactive in all assays
[1]; [17]
  activity in ARE-bla assay (words): inactive across all assays
[2]; [5]
  ARE-luc EC50: inactive
[2]; follow-up studies, up to 46 µM
  activity in ARE-luc assay (words): inactive in all assays
[2]; [17]
  activity in ARE-luc assay (words): inactive across all assays
Mutated ARE; [6]
  ARE-bla mutant IC50: inactive
Mutated ARE; follow-up studies, up to 46 µM
  activity in ARE-bla-mut assay (words): inactive in all assays
Mutated ARE; [17]
  activity in ARE-bla-mut assay (words): inactive across all assays

## O=C(O)C1C(C(=O)O)C2(Cl)C(Cl)=C(Cl)C1(Cl)C2(Cl)Cl (stereo not shown) [Chlorendic acid]
[1]
  ARE-bla EC50: inactive
[2]
  ARE-luc EC50: inactive
Mutated ARE
  ARE-bla mutant IC50: inactive

## COc1cc(/C=C/C(=O)CC(=O)/C=C/c2ccc(O)c(OC)c2)ccc1O [Curcumin]
[1]; [7]
  Emax: 21%
[1]; [8]
  EC50: 3.2 ± 3.2 µM
[1]; [4]
  activity in ARE-bla assay (words): high-quality active
[2]; [9]
  Emax: 165%
[2]; [10]
  EC50: 10.8 ± 0.7 µM
[2]; [4]
  activity in ARE-luc assay (words): high-quality active
Mutated ARE; [6]
  ARE-bla mutant IC50: inactive

## O=C1c2ccccc2C(=O)C1c1ccc2ccccc2n1 [D & C Yellow II]
[1]; [12]
  EC50: 0.7 ± 0.1 µM
[1]; [18]
  ARE-bla Efficacy: 88%
[2]; [14]
  EC50: 1.2 ± 0.7 µM
[2]; [18]
  ARE-luc Efficacy: 185%
Mutated ARE; confirmation/follow-up studies
  ARE-bla mutant Efficacy: 48%
Mutated ARE; follow-up studies, up to 46 µM
  activity in ARE-bla-mut assay (words): may exhibit autofluorescence

## CN1CSC(=S)N(C)C1 [Dazomet]
[1]; [11]
  Emax: 55%
[1]; [8]
  EC50: 20.1 ± 6.6 µM
[2]; [16]
  Emax: 22%
[2]; [10]
  EC50: 26.6 ± 2.2 µM
Mutated ARE; [6]
  ARE-bla mutant IC50: inactive

## ClC1=C(Cl)[C@]2(Cl)[C@@H]3[C@@H]4C[C@@H]([C@H]5O[C@@H]45)[C@@H]3[C@@]1(Cl)C2(Cl)Cl [Dieldrin]
[1]; [11]
  Emax: 40%
[1]; [8]
  EC50: 15.5 ± 11.8 µM
[2]; [16]
  Emax: 27%
[2]; [10]
  EC50: 14.2 ± 15 µM
Mutated ARE; [6]
  ARE-bla mutant IC50: inactive

## O=c1cc(-c2ccccc2)oc2ccccc12 [Flavone]
[1]; [7]
  Emax: 80%
[1]; [8]
  EC50: 2.4 ± 0.6 µM
[2]; [9]
  Emax: 47%
[2]; [10]
  EC50: 7.6 ± 0.5 µM
Mutated ARE; [6]
  ARE-bla mutant IC50: inactive

## C[S@@+]([O-])CCCCN=C=S [L-sulforaphane]
[1]; [4]
  activity in ARE-bla assay (words): active
[2]; [4]
  activity in ARE-luc assay (words): active

## CC(C)Nc1ccc(Nc2ccccc2)cc1 [N-Isopropyl-N'-phenyl-p-phenylenediamine]
[1]; Homo sapiens, HepG2, 16 h, read-out: ARE-bla EC50
  EC50: 13.1 ± 8.9 µM
[1]; Homo sapiens, HepG2, read-out: ARE-bla Efficacy
  Emax: 71%
Mutated ARE
  ARE-bla mutant IC50: inactive

## Oc1ccc(/C=C/c2cc(O)cc(O)c2)cc1 [resveratrol]
[1]; [4]
  activity in ARE-bla assay (words): active
[2]; [4]
  activity in ARE-luc assay (words): active

## O=c1cc(-c2ccccc2)oc2ccc3ccccc3c12 [β-Napthoflavone, reference compound]
[1]; primary screening, positive control across all 18 plates, read-out: average EC50 in ARE-bla assay
  EC50: 2.1 µM
[2]; primary screening, positive control across all 18 plates, read-out: average EC50 in ARE-luc assay
  EC50: 5.2 µM
